Measurements taken from PubChem BioAssay (NCI).
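Exposure lasted 48 hours, with cells grown in 96-well plates and compounds tested at five concentrations. At the TGI there is no net growth.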

Tests used:
Assay in all cases: growth of human tumour cells (NCI), 48 h
UACC-257 melanoma = system: UACC-257 melanoma
NCI-H522 lung = system: NCI-H522 lung
ACHN renal = system: ACHN renal
HCT-15 colon = system: HCT-15 colon
SN12C renal = system: SN12C renal
SK-MEL-28 melanoma = system: SK-MEL-28 melanoma
RPMI-8226 leukemia = system: RPMI-8226 leukemia
OVCAR-5 ovarian = system: OVCAR-5 ovarian
DU-145 prostate = system: DU-145 prostate
MCF7 breast = system: MCF7 breast

Structure (SMILES): COP12(OC)NC(=O)OC1(C(F)(F)F)c1ccccc1O2 (centres undefined)
- TGI (UACC-257 melanoma): > 100 µM
- TGI (NCI-H522 lung): > 100 µM
- TGI (ACHN renal): > 100 µM
- TGI (HCT-15 colon): > 100 µM
- TGI (SN12C renal): > 100 µM
- TGI (SK-MEL-28 melanoma): > 100 µM

Structure (SMILES): CCOC(=O)/C(C1=NCCN1C)=C(\O)c1ccccc1
- TGI (UACC-257 melanoma): > 100 µM
- TGI (NCI-H522 lung): > 100 µM
- TGI (ACHN renal): > 100 µM
- TGI (RPMI-8226 leukemia): > 100 µM
- TGI (HCT-15 colon): > 100 µM
- TGI (SN12C renal): > 100 µM
- TGI (SK-MEL-28 melanoma): > 100 µM
- TGI (OVCAR-5 ovarian): > 100 µM

Structure (SMILES): Cc1nc(C)c(N2CCN(Cc3ccccc3)CC2)c(=O)[nH]1
- TGI (DU-145 prostate): > 100 µM
- TGI (UACC-257 melanoma): > 100 µM
- TGI (NCI-H522 lung): > 100 µM
- TGI (ACHN renal): > 100 µM
- TGI (RPMI-8226 leukemia): > 100 µM
- TGI (HCT-15 colon): > 100 µM
- TGI (SN12C renal): > 100 µM
- TGI (SK-MEL-28 melanoma): > 100 µM
- TGI (MCF7 breast): > 100 µM

Structure (SMILES): N#Cc1ccc(C2OCC3CC=CCC3CO2)cc1 (centres undefined)
- TGI (UACC-257 melanoma): > 100 µM
- TGI (NCI-H522 lung): > 100 µM
- TGI (ACHN renal): > 100 µM
- TGI (RPMI-8226 leukemia): > 100 µM
- TGI (HCT-15 colon): > 100 µM
- TGI (SN12C renal): > 100 µM
- TGI (SK-MEL-28 melanoma): > 100 µM
- TGI (OVCAR-5 ovarian): > 100 µM

Structure (SMILES): CCCCC/C=C\C=C\CCCCCCCCC(=O)OC
- TGI (DU-145 prostate): > 100 µM
- TGI (UACC-257 melanoma): > 100 µM
- TGI (ACHN renal): > 100 µM
- TGI (RPMI-8226 leukemia): > 100 µM
- TGI (HCT-15 colon): > 100 µM
- TGI (SN12C renal): > 100 µM
- TGI (SK-MEL-28 melanoma): > 100 µM
- TGI (OVCAR-5 ovarian): > 100 µM
- TGI (MCF7 breast): > 100 µM

Structure (SMILES): c1cc2c(cc1C1OCC3C(c4ccc5c(c4)OCO5)OCC13)OCO2 (centres undefined)
- TGI (UACC-257 melanoma): > 100 µM
- TGI (NCI-H522 lung): > 100 µM
- TGI (ACHN renal): > 100 µM
- TGI (HCT-15 colon): > 100 µM
- TGI (SN12C renal): > 100 µM
- TGI (SK-MEL-28 melanoma): > 100 µM
- TGI (OVCAR-5 ovarian): > 100 µM

Structure (SMILES): COc1ccc(/C=C2/SC(=Nc3ccccc3)N(NC(=O)Cc3ccccc3)C2=O)cc1
- TGI (DU-145 prostate): > 100 µM
- TGI (UACC-257 melanoma): > 100 µM
- TGI (ACHN renal): > 100 µM
- TGI (RPMI-8226 leukemia): > 100 µM
- TGI (HCT-15 colon): > 100 µM
- TGI (SN12C renal): > 100 µM
- TGI (SK-MEL-28 melanoma): > 100 µM
- TGI (OVCAR-5 ovarian): > 100 µM
- TGI (MCF7 breast): > 100 µM

Structure (SMILES): O=C(c1ccccc1)c1ccc(N2C(=O)/C(=C/c3ccccc3S)N=C2c2ccccc2)c(N2C(=O)/C(=C/c3ccccc3S)N=C2c2ccccc2)c1
- TGI (DU-145 prostate): > 100 µM
- TGI (UACC-257 melanoma): > 100 µM
- TGI (ACHN renal): > 100 µM
- TGI (RPMI-8226 leukemia): 53.1 µM
- TGI (HCT-15 colon): > 100 µM
- TGI (SN12C renal): > 100 µM
- TGI (SK-MEL-28 melanoma): > 100 µM
- TGI (OVCAR-5 ovarian): > 100 µM
- TGI (MCF7 breast): > 100 µM

Structure (SMILES): CO[P@@]1(=O)O[C@@H](c2ccccc2)[C@H](O)[C@@]1(O)c1ccccc1
- TGI (DU-145 prostate): > 100 µM
- TGI (UACC-257 melanoma): > 100 µM
- TGI (NCI-H522 lung): > 100 µM
- TGI (ACHN renal): > 100 µM
- TGI (HCT-15 colon): > 100 µM
- TGI (SN12C renal): > 100 µM
- TGI (SK-MEL-28 melanoma): > 100 µM
- TGI (OVCAR-5 ovarian): > 100 µM
- TGI (MCF7 breast): > 100 µM

Structure (SMILES): COc1ccc(/C(C)=C2\CCCN(Cc3ccccc3)C2)cc1
- TGI (DU-145 prostate): > 100 µM
- TGI (UACC-257 melanoma): 86.4 µM
- TGI (NCI-H522 lung): 26.4 µM
- TGI (ACHN renal): 98.4 µM
- TGI (RPMI-8226 leukemia): 47.4 µM
- TGI (HCT-15 colon): 46.1 µM
- TGI (SK-MEL-28 melanoma): 58.4 µM
- TGI (OVCAR-5 ovarian): > 100 µM
- TGI (MCF7 breast): 37.8 µM

Structure (SMILES): Cc1cn(CC(=S)NCCc2c[nH]c3ccccc23)c(=O)[nH]c1=O
- TGI (DU-145 prostate): > 100 µM
- TGI (ACHN renal): > 100 µM
- TGI (RPMI-8226 leukemia): > 100 µM
- TGI (HCT-15 colon): > 100 µM
- TGI (SN12C renal): > 100 µM
- TGI (SK-MEL-28 melanoma): > 100 µM
- TGI (OVCAR-5 ovarian): > 100 µM
- TGI (MCF7 breast): > 100 µM

Structure (SMILES): CN1CCS(=O)(=O)NC(Cc2ccccc2)C(=O)N2CCCC2C1=O (centres undefined)
- TGI (UACC-257 melanoma): > 100 µM
- TGI (NCI-H522 lung): > 100 µM
- TGI (ACHN renal): > 100 µM
- TGI (RPMI-8226 leukemia): > 100 µM
- TGI (HCT-15 colon): > 100 µM
- TGI (SN12C renal): > 100 µM
- TGI (SK-MEL-28 melanoma): > 100 µM
- TGI (OVCAR-5 ovarian): > 100 µM

Structure (SMILES): CC(C)CCNC(=O)c1ccc(CNC(=O)/C=C/c2ccc3ccccc3c2)cc1
- TGI (DU-145 prostate): > 100 µM
- TGI (UACC-257 melanoma): > 100 µM
- TGI (ACHN renal): > 100 µM
- TGI (RPMI-8226 leukemia): > 100 µM
- TGI (HCT-15 colon): > 100 µM
- TGI (SN12C renal): > 100 µM
- TGI (SK-MEL-28 melanoma): > 100 µM
- TGI (OVCAR-5 ovarian): > 100 µM
- TGI (MCF7 breast): > 100 µM

Structure (SMILES): CC(C)CC(N)C(=O)NC(CNC(CCC(N)=O)C(=O)NC(CC(C)C)C(=O)NC(CC(C)C)C(=O)O)Cc1ccc2ccccc2c1 (centres undefined)
- TGI (DU-145 prostate): > 10 µM
- TGI (UACC-257 melanoma): > 10 µM
- TGI (ACHN renal): > 10 µM
- TGI (RPMI-8226 leukemia): > 10 µM
- TGI (HCT-15 colon): > 10 µM
- TGI (SN12C renal): > 10 µM
- TGI (SK-MEL-28 melanoma): > 10 µM
- TGI (OVCAR-5 ovarian): > 10 µM
- TGI (MCF7 breast): > 10 µM

Structure (SMILES): COc1cc2ccnc(C#N)c2cc1OCc1ccccc1
- TGI (UACC-257 melanoma): > 100 µM
- TGI (NCI-H522 lung): > 100 µM
- TGI (ACHN renal): > 100 µM
- TGI (RPMI-8226 leukemia): > 100 µM
- TGI (HCT-15 colon): > 100 µM
- TGI (SN12C renal): > 100 µM
- TGI (SK-MEL-28 melanoma): > 100 µM
- TGI (OVCAR-5 ovarian): > 100 µM

Structure (SMILES): CCC1(c2ccc(OC)c(OC)c2)CCN(S(=O)(=O)c2ccc(C)cc2)C1 (centres undefined)
- TGI (DU-145 prostate): > 100 µM
- TGI (UACC-257 melanoma): > 100 µM
- TGI (NCI-H522 lung): > 100 µM
- TGI (ACHN renal): > 100 µM
- TGI (HCT-15 colon): > 100 µM
- TGI (SN12C renal): > 100 µM
- TGI (SK-MEL-28 melanoma): > 10 µM
- TGI (OVCAR-5 ovarian): > 100 µM
- TGI (MCF7 breast): > 100 µM

Structure (SMILES): COc1cc2c(cc1NC(=O)c1ccccc1)c1c(n2S(=O)(=O)c2ccccc2)CCN(S(=O)(=O)c2ccccc2)C1
- TGI (DU-145 prostate): > 100 µM
- TGI (UACC-257 melanoma): > 100 µM
- TGI (ACHN renal): > 100 µM
- TGI (RPMI-8226 leukemia): > 100 µM
- TGI (HCT-15 colon): > 100 µM
- TGI (SK-MEL-28 melanoma): > 100 µM
- TGI (OVCAR-5 ovarian): > 100 µM

Structure (SMILES): CN1C(=O)C(=Cc2ccc(Br)cc2)C(=O)N(C)C1=O
- TGI (DU-145 prostate): > 100 µM
- TGI (UACC-257 melanoma): > 100 µM
- TGI (ACHN renal): > 100 µM
- TGI (RPMI-8226 leukemia): > 100 µM
- TGI (HCT-15 colon): > 100 µM
- TGI (SK-MEL-28 melanoma): > 100 µM
- TGI (OVCAR-5 ovarian): > 100 µM
- TGI (MCF7 breast): > 100 µM

Structure (SMILES): Cc1nn(CNc2ccc(F)c(Cl)c2)c(=S)n1/N=C/c1ccc(-c2ccc(Cl)cc2Cl)o1
- TGI (DU-145 prostate): 30.7 µM
- TGI (UACC-257 melanoma): 46.9 µM
- TGI (NCI-H522 lung): 29.7 µM
- TGI (ACHN renal): 30.7 µM
- TGI (RPMI-8226 leukemia): 29.7 µM
- TGI (HCT-15 colon): 41.6 µM
- TGI (SK-MEL-28 melanoma): 44.3 µM
- TGI (OVCAR-5 ovarian): 41.2 µM
- TGI (MCF7 breast): 37.3 µM

Structure (SMILES): COc1ccc2c(O)c1-c1c(OC)ccc(c1O)SSc1ccc(OC)c(c1O)-c1c(OC)ccc(c1O)SS2
- TGI (DU-145 prostate): > 100 µM
- TGI (UACC-257 melanoma): > 100 µM
- TGI (NCI-H522 lung): 15.5 µM
- TGI (ACHN renal): 18.5 µM
- TGI (RPMI-8226 leukemia): 7.07 µM
- TGI (SN12C renal): > 100 µM
- TGI (SK-MEL-28 melanoma): > 100 µM
- TGI (OVCAR-5 ovarian): > 100 µM
- TGI (MCF7 breast): > 100 µM

Structure (SMILES): CC(=O)NC1C(OCc2ccccc2)OC(CO)C(O)C1OCC(=O)NC(C(=O)NC(CCC(=O)NCCCCCC(=O)Nc1ccc2c(c1)CN1C(=O)c3ccccc3C1=N2)C(N)=O)C(C)C (centres undefined)
- TGI (DU-145 prostate): > 100 µM
- TGI (UACC-257 melanoma): 66.7 µM
- TGI (ACHN renal): > 100 µM
- TGI (RPMI-8226 leukemia): > 100 µM
- TGI (HCT-15 colon): > 100 µM
- TGI (SN12C renal): > 100 µM
- TGI (SK-MEL-28 melanoma): 39 µM
- TGI (OVCAR-5 ovarian): > 100 µM
- TGI (MCF7 breast): 56.7 µM

Structure (SMILES): O=[N+]([O-])C(C(Cl)=C(Cl)Cl)=C(N1CCCCC1)N1CCCCC1
- TGI (DU-145 prostate): > 100 µM
- TGI (UACC-257 melanoma): > 100 µM
- TGI (ACHN renal): > 100 µM
- TGI (RPMI-8226 leukemia): > 100 µM
- TGI (HCT-15 colon): > 100 µM
- TGI (SN12C renal): > 100 µM
- TGI (SK-MEL-28 melanoma): > 100 µM
- TGI (OVCAR-5 ovarian): > 100 µM
- TGI (MCF7 breast): > 100 µM

Structure (SMILES): CCn1c2ccccc2c2ccc(C3C4C(=O)N(c5cccc6ccccc56)C(=O)C4ON3C(C(N)=O)c3ccccc3)cc21 (centres undefined)
- TGI (DU-145 prostate): > 25 µM
- TGI (UACC-257 melanoma): > 25 µM
- TGI (NCI-H522 lung): > 25 µM
- TGI (ACHN renal): > 25 µM
- TGI (HCT-15 colon): > 25 µM
- TGI (SN12C renal): > 25 µM
- TGI (SK-MEL-28 melanoma): > 25 µM
- TGI (OVCAR-5 ovarian): > 25 µM
- TGI (MCF7 breast): > 25 µM
